Assay results taken from ChEMBL document CHEMBL5661979, “Pharmacological inhibition of BMK1 suppresses tumor growth through promyelocytic leukemia protein” (Cancer Cell, 2010).
Calls of active or inactive are those of the source. No cut-off for these calls is given here.

Target: Mitogen-activated protein kinase; ERK1/ERK2 (Homo sapiens) (UniProt P27361+P28482)
Assay: Inhibition of ERK1/2 in human HeLa cells assessed as reduction in EGF-induced ERK1/2 phosphorylation level at T202/Y204 residue at 1 uM pre incubated for 1 hr followed by EGF stimulation and measured after 17 mins by Western blot analysis
Assay type: cell-based
Details: time 77.0 min

Chain of Mitogen-activated protein kinase; ERK1/ERK2 (Homo sapiens) (P27361 whole entry, looked up): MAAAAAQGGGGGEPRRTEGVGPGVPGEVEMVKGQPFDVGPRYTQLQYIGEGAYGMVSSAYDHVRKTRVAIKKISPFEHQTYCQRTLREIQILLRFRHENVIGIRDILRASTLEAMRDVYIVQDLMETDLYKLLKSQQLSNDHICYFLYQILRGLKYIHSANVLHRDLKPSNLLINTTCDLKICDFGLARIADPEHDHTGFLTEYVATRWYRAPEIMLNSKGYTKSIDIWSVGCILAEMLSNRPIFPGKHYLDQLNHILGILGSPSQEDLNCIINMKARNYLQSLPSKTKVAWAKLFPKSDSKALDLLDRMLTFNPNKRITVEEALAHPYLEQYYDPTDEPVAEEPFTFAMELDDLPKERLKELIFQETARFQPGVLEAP
Chain of Mitogen-activated protein kinase; ERK1/ERK2 (Homo sapiens) (P28482 whole entry, looked up): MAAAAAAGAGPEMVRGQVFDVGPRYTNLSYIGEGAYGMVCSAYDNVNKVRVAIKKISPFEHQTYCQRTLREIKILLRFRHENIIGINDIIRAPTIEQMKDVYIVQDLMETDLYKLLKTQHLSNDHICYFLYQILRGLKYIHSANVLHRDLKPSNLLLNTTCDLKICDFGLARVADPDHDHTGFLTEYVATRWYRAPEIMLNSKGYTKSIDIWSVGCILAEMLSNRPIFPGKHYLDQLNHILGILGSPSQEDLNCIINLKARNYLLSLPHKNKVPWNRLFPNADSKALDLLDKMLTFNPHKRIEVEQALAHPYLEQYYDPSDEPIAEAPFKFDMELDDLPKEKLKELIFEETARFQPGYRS

- inhibition: Active
SMILES: O=C(NOCC1CC1)c1ccc(F)c(F)c1Nc1ccc(I)cc1Cl
